ChEMBL document CHEMBL1201862, “PubChem BioAssay data set” (2004)
The source made the active and inactive calls.

Tests used:
Phospholipase A2 = Phospholipase A2 (Homo sapiens, UniProt P04054); assay type: functional;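 note: confirmatory dose-response counterscreen on phospholipase A2, testing hits that came from an ultra-high-throughput screen for ATG4B inhibitors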
[1] = target: 1-phosphatidylinositol 4,5-bisphosphate phosphodiesterase gamma-1 (Homo sapiens, UniProt P19174); assay: Counterscreen for inhibitors of phospholipase C isozymes (PLC-B3): Fluorescence-based biochemical high throughput dose response assay to identify inhibitors of phospholipase C isozymes (PLC-gamma1).
Chain of 1-phosphatidylinositol 4,5-bisphosphate phosphodiesterase gamma-1 (P19174 whole entry): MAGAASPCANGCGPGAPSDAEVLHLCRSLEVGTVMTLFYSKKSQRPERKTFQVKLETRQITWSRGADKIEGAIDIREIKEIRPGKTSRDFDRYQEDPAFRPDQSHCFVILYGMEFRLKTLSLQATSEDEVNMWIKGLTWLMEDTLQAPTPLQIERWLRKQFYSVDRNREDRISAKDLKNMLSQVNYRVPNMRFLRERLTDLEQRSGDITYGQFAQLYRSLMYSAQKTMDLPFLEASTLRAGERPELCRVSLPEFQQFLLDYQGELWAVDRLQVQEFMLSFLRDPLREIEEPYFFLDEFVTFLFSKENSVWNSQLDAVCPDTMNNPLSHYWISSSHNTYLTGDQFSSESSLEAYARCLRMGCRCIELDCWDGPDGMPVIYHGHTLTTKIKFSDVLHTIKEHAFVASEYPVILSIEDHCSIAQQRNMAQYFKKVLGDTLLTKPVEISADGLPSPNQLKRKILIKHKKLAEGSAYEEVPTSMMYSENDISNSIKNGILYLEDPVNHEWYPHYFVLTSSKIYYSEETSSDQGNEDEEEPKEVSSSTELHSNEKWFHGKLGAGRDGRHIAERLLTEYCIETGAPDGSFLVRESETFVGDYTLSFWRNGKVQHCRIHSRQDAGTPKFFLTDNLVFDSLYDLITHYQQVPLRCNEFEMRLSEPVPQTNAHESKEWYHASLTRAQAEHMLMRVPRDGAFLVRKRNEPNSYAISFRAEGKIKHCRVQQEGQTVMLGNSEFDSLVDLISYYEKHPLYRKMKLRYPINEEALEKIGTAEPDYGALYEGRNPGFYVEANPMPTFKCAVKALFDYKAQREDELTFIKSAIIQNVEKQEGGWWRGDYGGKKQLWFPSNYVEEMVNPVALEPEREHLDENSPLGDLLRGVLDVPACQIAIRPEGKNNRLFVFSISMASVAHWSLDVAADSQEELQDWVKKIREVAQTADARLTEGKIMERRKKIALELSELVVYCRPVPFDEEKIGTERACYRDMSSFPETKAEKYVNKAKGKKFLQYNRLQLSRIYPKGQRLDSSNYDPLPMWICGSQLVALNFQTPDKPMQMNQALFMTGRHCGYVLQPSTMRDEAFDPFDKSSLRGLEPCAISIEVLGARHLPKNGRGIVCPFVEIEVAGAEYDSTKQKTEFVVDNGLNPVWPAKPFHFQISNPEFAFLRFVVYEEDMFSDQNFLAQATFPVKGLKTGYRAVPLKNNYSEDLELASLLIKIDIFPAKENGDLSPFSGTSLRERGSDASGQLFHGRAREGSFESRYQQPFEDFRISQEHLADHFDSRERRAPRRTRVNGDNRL

[2] = target: Ras and Rab interactor 1/Tyrosine-protein kinase ABL1 (Homo sapiens, UniProt P00519+Q13671); assay type: functional;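 note: biochemical TR-FRET dose-response test measuring inhibition of binding between Rin1 and Abl proteins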
Chain of Ras and Rab interactor 1/Tyrosine-protein kinase ABL1 (P00519 whole entry): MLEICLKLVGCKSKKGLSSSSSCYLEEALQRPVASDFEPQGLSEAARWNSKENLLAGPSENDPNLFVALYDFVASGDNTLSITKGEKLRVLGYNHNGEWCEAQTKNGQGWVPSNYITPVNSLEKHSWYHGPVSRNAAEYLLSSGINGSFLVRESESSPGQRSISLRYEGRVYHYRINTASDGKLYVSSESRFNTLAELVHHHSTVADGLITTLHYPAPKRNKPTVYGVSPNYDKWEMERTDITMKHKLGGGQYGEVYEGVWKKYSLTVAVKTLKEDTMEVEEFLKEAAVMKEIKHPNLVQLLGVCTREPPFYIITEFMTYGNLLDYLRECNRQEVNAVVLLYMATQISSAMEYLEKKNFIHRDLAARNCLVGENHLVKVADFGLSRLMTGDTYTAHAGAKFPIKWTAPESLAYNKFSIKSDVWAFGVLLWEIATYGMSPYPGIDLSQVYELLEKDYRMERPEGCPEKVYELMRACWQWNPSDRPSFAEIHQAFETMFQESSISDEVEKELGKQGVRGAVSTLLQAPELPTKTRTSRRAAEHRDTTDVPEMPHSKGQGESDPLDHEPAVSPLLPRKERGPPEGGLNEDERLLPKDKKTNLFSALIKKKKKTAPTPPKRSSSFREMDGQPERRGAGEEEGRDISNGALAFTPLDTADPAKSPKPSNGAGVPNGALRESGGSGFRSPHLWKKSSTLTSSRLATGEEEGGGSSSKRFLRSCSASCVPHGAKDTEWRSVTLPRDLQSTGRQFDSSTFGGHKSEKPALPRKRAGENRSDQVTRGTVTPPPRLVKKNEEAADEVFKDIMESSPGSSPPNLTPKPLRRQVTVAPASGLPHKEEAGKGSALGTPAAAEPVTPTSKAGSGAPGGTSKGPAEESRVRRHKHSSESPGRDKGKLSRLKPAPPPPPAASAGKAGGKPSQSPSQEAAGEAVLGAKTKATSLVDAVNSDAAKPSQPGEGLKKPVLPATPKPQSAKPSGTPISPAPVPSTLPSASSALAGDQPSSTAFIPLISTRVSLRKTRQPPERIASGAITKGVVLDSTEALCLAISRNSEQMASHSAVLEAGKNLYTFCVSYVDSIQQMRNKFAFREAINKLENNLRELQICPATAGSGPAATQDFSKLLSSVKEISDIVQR
Chain of Ras and Rab interactor 1/Tyrosine-protein kinase ABL1 (Q13671 whole entry): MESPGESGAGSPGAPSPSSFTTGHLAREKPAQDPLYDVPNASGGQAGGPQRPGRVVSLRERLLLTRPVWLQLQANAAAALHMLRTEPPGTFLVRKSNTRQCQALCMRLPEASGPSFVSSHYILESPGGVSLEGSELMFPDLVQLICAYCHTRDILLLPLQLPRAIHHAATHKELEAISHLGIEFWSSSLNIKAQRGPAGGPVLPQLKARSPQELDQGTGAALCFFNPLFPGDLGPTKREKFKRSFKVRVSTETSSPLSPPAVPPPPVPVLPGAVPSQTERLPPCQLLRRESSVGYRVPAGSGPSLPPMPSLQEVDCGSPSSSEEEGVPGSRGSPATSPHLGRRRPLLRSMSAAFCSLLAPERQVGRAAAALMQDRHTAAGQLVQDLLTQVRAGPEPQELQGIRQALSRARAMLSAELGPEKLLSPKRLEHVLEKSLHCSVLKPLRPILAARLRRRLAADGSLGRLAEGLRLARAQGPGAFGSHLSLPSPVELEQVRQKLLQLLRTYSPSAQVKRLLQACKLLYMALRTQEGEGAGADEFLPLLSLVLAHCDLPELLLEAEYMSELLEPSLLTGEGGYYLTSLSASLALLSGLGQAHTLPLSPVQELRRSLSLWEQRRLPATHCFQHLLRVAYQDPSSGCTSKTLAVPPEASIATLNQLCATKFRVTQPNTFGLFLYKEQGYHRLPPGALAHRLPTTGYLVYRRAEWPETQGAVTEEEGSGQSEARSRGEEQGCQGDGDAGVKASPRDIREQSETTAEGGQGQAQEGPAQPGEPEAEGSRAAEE

[3] = target: T1, Sentrin-specific protease 8 (Homo sapiens, UniProt Q96LD8); assay type: functional;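 note: luminescence read-out of SENP8 inhibition, dose-response confirmation following an ultra-high-throughput screen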
T1 sequence (Q96LD8 whole entry): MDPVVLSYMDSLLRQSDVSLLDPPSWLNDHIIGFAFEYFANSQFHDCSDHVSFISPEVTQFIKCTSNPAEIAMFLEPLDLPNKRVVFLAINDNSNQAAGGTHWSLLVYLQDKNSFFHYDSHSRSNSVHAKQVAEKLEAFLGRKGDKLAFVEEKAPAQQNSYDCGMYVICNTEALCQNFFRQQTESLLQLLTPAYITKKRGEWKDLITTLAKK

[4] = target: Tyrosine-protein kinase ABL1 (Homo sapiens, UniProt P00519); assay type: functional
Chain of Tyrosine-protein kinase ABL1 (P00519 whole entry): as the sequence (P00519 whole entry) above

[5] = target: STE20-like serine/threonine-protein kinase (Homo sapiens, UniProt Q9H2G2); assay type: functional
[6] = target: MAP kinase-interacting serine/threonine-protein kinase 2 (Homo sapiens, UniProt Q9HBH9); assay type: functional
[7] = target: Serine/threonine-protein kinase pim-1 (Homo sapiens, UniProt P11309); assay type: functional
[8] = target: Testis-specific serine/threonine-protein kinase 1 (Homo sapiens, UniProt Q9BXA7); assay type: functional
[9] = target: T2, Dual specificity tyrosine-phosphorylation-regulated kinase 3 (Homo sapiens, UniProt O43781); assay type: functional;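 note: measured as one member of a broad kinase panel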
T2 sequence (O43781 whole entry): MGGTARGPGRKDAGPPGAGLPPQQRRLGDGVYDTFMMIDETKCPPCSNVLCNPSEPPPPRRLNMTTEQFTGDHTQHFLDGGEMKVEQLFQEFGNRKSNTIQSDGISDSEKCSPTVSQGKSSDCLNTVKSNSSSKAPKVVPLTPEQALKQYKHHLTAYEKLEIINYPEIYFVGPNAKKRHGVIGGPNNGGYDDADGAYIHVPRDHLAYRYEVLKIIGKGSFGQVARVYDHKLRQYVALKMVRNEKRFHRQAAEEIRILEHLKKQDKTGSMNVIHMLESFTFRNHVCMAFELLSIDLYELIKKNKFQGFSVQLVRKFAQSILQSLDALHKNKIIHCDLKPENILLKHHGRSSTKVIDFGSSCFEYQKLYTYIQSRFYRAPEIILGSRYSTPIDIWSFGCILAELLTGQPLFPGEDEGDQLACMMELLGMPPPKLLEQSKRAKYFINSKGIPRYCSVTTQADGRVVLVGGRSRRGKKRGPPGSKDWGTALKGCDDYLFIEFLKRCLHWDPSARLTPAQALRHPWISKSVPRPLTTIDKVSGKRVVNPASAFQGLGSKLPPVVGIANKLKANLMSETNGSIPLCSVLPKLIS

SRSF protein kinase 1 = SRSF protein kinase 1 (Homo sapiens, UniProt Q96SB4); assay type: functional;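 note: measured as one member of a kinome-wide kinase profiling panel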
[10] = target: Tyrosine-protein kinase Lyn (Homo sapiens, UniProt P07948); assay type: functional;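 note: lyn as one member of a kinase panel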
[11] = target: Cell division cycle 7-related protein kinase (Homo sapiens, UniProt O00311); assay type: functional;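 note: value obtained from a kinome-wide kinase panel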
[12] = target: BDNF/NT-3 growth factors receptor (Homo sapiens, UniProt Q16620); assay type: functional;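 note: NTRK2 measured as one member of a broad kinome-wide kinase profiling panel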
[13] = target: Tyrosine-protein kinase JAK3 (Homo sapiens, UniProt P52333); assay type: functional
Chain of Tyrosine-protein kinase JAK3 (P52333 whole entry): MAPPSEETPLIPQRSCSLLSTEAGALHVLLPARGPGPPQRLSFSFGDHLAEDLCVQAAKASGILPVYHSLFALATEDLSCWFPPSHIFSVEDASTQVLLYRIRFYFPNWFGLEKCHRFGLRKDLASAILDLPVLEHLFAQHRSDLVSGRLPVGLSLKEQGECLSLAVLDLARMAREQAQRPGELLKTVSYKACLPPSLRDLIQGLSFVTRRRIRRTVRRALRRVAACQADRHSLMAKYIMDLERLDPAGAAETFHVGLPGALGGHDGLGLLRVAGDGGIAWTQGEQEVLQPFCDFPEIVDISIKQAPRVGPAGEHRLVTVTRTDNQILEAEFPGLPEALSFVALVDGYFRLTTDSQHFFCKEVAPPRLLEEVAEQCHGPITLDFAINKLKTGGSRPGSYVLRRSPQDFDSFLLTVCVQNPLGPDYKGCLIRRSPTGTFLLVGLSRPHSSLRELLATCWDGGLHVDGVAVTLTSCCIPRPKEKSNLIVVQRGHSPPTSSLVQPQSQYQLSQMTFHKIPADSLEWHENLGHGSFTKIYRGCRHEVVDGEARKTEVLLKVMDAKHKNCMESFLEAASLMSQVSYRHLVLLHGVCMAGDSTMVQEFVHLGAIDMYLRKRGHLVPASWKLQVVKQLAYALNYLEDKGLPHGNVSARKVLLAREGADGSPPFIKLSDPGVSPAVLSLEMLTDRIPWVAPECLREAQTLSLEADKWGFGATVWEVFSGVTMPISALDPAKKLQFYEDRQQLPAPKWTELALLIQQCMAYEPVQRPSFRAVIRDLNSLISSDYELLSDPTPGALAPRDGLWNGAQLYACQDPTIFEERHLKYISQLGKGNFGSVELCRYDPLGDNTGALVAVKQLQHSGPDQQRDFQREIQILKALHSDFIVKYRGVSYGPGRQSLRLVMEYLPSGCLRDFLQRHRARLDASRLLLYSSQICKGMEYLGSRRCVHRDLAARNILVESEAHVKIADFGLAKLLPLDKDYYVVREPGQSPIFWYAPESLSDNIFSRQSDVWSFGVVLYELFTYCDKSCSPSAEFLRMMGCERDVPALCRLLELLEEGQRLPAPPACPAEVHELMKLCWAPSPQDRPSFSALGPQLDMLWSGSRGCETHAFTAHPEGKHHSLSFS

[14] = target: Tyrosine-protein kinase ITK/TSK (Homo sapiens, UniProt Q08881); assay type: functional;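 note: affinity for ITK measured as one member of a broad kinase panel profiling binding across the kinome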
[15] = target: T3, Lymphokine-activated killer T-cell-originated protein kinase (Homo sapiens, UniProt Q96KB5); assay type: functional;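 note: value comes from a kinase panel screen in which TOPK was one of the panel members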
T3 sequence (Q96KB5 whole entry): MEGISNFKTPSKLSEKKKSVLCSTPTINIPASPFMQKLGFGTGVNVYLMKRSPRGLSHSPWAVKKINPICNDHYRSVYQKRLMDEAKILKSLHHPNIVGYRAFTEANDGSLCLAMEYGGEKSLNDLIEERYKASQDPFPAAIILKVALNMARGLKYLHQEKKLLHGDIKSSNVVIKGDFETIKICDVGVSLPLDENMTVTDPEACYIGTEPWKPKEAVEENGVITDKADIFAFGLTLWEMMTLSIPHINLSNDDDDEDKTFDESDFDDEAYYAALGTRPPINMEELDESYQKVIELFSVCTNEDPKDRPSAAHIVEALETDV

Misshapen-like kinase 1 = Misshapen-like kinase 1 (Homo sapiens, UniProt Q8N4C8); assay type: functional;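 note: kinome panel screen with MINK as the panel member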
[16] = target: Interleukin-1 receptor-associated kinase 4 (Homo sapiens, UniProt Q9NWZ3); assay type: functional
[17] = target: Serine/threonine-protein kinase D3 (Homo sapiens, UniProt O94806); assay type: functional;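 note: determined within a kinase panel screen, with PRKCN as the panel member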
[18] = target: Casein kinase I isoform gamma-1 (Homo sapiens, UniProt Q9HCP0); assay type: functional;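 note: measured as the CSNK1G1 member of a kinome profiling panel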
Chain of Casein kinase I isoform gamma-1 (Q9HCP0 whole entry, canonical isoform): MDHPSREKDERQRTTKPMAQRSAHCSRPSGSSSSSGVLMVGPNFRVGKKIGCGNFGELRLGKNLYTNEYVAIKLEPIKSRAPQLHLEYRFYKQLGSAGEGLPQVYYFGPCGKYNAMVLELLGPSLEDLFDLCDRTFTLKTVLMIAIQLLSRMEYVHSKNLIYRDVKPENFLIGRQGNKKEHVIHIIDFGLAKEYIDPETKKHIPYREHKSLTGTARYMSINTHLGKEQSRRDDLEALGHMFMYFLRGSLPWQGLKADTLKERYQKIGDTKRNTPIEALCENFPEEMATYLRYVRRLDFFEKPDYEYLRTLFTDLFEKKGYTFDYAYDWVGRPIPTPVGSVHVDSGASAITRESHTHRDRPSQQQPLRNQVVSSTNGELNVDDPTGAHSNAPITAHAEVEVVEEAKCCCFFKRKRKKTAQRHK

[19] = target: Serine/threonine-protein kinase N2 (Homo sapiens, UniProt Q16513); assay type: functional
[20] = target: Cyclin-dependent kinase 19 (Homo sapiens, UniProt Q9BWU1); assay: Navigating the Kinome. Panel member name: CDC2L6; assay type: functional
[21] = target: Protein kinase C gamma type (Homo sapiens, UniProt P05129); assay type: functional
[22] = target: Calcium/calmodulin-dependent protein kinase type II subunit beta (Homo sapiens, UniProt Q13554); assay type: functional
[23] = target: Serine/threonine-protein kinase pim-2 (Homo sapiens, UniProt Q9P1W9); assay type: functional;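 note: value comes from a broad kinase panel profiling study in which PIM2 was one of the panel members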

Chain of Phospholipase A2 (P04054 whole entry): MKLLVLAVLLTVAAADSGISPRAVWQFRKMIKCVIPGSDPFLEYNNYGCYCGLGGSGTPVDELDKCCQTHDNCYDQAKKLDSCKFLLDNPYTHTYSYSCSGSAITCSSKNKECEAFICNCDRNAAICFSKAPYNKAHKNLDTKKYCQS

For `CCCc1nc2c(=O)n(C)c(=O)nc-2n(C)n1`, the IC50 (Phospholipase A2) was > 80 µM (inactive), the IC50 [1] was > 1.51 µM (active) and the IC50 [2] was 0.527 µM (active).

For `CC(=O)c1ccc(NC2=C(N3CCOCC3)C(=O)c3ccccc3C2=O)cc1`, the IC50 [3] was 18.8 µM (active).

In the case of `COc1cc2ncn(-c3cc(OCc4ccccc4C(F)(F)F)c(C(N)=O)s3)c2cc1OC` [GW843682X], the Ki [4] is reported as > 0.631 µM (inactive), the Ki [5] is reported as 0.0126 µM (active) and the Ki [6] is reported as > 10 µM (inactive). The Ki [7] was > 10 µM (inactive), the Ki [8] was 0.2 µM (active) and the Ki [9] was > 6.31 µM (inactive). For the same molecule, the Ki (SRSF protein kinase 1) was > 7.94 µM (inactive), the Ki [10] was > 1.58 µM (inactive) and the Ki [11] was > 1.26 µM (inactive). The Ki [12] was > 5.01 µM (inactive), the Ki [13] was 0.2 µM (active) and the Ki [14] was 1 µM (active). For the same molecule, the Ki [15] was > 10 µM (inactive), the Ki (Misshapen-like kinase 1) was > 7.94 µM (inactive) and the Ki [16] was > 10 µM (inactive). For the same molecule, the Ki [17] was > 10 µM (inactive), the Ki [18] was > 6.31 µM (inactive) and the Ki [19] was > 7.94 µM (inactive). The Ki [20] was > 100 µM (inactive), the Ki [21] was > 7.94 µM (inactive) and the Ki [22] was > 7.94 µM (inactive). The Ki [23] was > 1.58 µM (inactive).
